Test results: US20240344032A1, “ORGANOID PRODUCTION METHOD, CULTURE MEDIUM FOR ORGANOID PRODUCTION, ORGANOID, AND TEST SUBSTANCE EVALUATION METHOD” (JSR CORPORATION, priority 2021, published 2024)
Where no end group is shown, it is not given here. [ ]: non-standard residue; d: D form. The star is where a group is joined. X1 = 4‑(carboxymethyl)piperazine‑1‑carbonyl, O=C(O)CN1CCN(C(=O)*)CC1; 1Nal = N[C@@H](Cc1cccc2ccccc12)C(=O)O; Gly(NCH2CH2Ph) = O=C(O)CNCCc1ccccc1; 4Pal = N[C@@H](Cc1ccncc1)C(=O)O

Experiments:
[1] = tested on: primary human hepatocytes; experiment: Culturing of human hepatocytes (proliferation of cells); assay type: cell-based
Experimental: Cryopreserved primary human hepatocytes in suspension (HEP187-S, manufactured by Biopredic International) were thawed in a water bath at 37° C., suspended in a 50 mL tube to which a serum-free culture medium (a culture medium obtained by adding HEPES, GLUTAMAX, and PENICILIN/STEREPTOMYCIN to Advanced DMEM/F12) had been added, and centrifuged. After the centrifugation, the supernatant was removed, and then the resultant product was suspended in a serum-free culture medium to prepare a human hepatocyte suspension. 20,000 human hepatocytes were collected from the suspension, mixed with 50 μL of Matrigel (registered trademark, manufactured by BD Biosciences), seeded in a 24-well tissue culture plate, and incubated at 37° C. for 10 minutes until Matrigel (registered trademark) was completely polymerized. After the polymerization, a culture medium (500 μL/well) prepared by adding each component to a basal medium to have the concentration shown in Table 4 below was overlaid, and culturing was carried out at 37° C. in the presence of 5% by volume of CO2. Advanced DMEM/F12 was used as a basal medium. The culture medium was exchanged every two or three days.
FIG. 2 is a graph showing a result of measuring the proliferation of cells.
FIG. 3 is a graph showing a result of measuring proliferation of cells in a case where the concentration of the #7401 peptide was set to be low.

[2] = tested on: Human small intestinal epithelial cells (including human small intestinal stem cells); experiment: Examination of EGFR signal and p38 MAPK signal: culture of small intestinal epithelial cells, bright field observation and Lgr5-tdTomato reporter assay; assay type: cell-based
Experimental: Upregulation of EGFR signal is known to induce cell proliferation. Therefore, the cell proliferative properties in a state where there was no EGFR signal were examined. […] Therefore, culturing was examined in the presence or absence of the p38 MAPK signal.
To the basal medium (Advanced DMEM/F12), each component was added to the concentration shown in Table 5 below to prepare a culture medium. Human small intestinal epithelial cells (including human small intestinal stem cells) were dispersed in Matrigel (registered trademark, manufactured by BD Biosciences). Subsequently, the dispersion product was seeded into each well of a 48-well tissue culture plate and incubated at 37° C. for 10 minutes to polymerize Matrigel (registered trademark).
Subsequently, 300 μL/well of a culture medium was overlaid, and culturing was carried out at 37° C. for 10 days in the presence of 5% by volume of CO2. The culture medium was exchanged every two or three days. Cells were cultured for 10 days in a culture medium containing EGF and cultured for 14 days in a culture medium containing no EGF. Thereafter, bright field observation with an optical microscope in the well and Lgr5-tdTomato reporter assay were carried out.

[3] = tested on: ALK5, VEGFR, RIPK2, MINK1, p38a MAPK, PKD1, and FGF-R1; details: known from the literature; cited from earlier work
[4] = tested on: p38 MAPK signaling pathway; details: reported in Vogt J., et al., Cell Signal., 2011; cited from earlier work
[5] = tested on: Human colon epithelial cells (including human colon stem cells); experiment: Culturing of human colon epithelial cells (organoid formation); assay type: cell-based; details: 0.5 nM, 5 nM, or 50 nM in culture medium, 7 days, optical microscope, FIG. 1
Experimental: To a basal medium, each component was added to have the concentration shown in Table 3 below to prepare a culture medium. In Table 3, “CM” means conditioned medium. Advanced DMEM/F12 was used as a basal medium. As the peptide, peptide names #7401 and #2392 were used (hereinafter, each may be referred to as “#7401 peptide” and “#2392 peptide”). Regarding the #7401 peptide, a chemical formula is shown in Formula (2-1), and an amino acid sequence (SEQ ID NO: 3) is shown in Formula (2-2). In addition, regarding the #2392 peptide, a chemical formula is shown in Formula (3-1), and an amino acid sequence (SEQ ID NO: 4) is shown in Formula (3-2).
Human colon epithelial cells (including human colon stem cells) were dispersed in Matrigel (registered trademark, manufactured by BD Biosciences). Subsequently, the dispersion product was seeded into each well of a 48-well tissue culture plate and incubated at 37° C. for 10 minutes to polymerize Matrigel (registered trademark).
Subsequently, the culture medium (300 μL/well) prepared in Experimental Example 1 was overlaid on each well, and culturing was carried out at 37° C. for 7 days in the presence of 5% by volume of CO2. The culture medium was exchanged every two or three days.

Molecule | proliferation of cells ([1]; 5 μM added to the culture medium, FIG. 2) | cell proliferative properties and colony forming properties ([2]; medium containing EGF (50 ng/mL), no SB202190, 500 nM and 5000 nM, 10 days, FIG. 5) | stem cell properties (Lgr5-tdTomato reporter) versus 50 nM or 500 nM #7401 peptide ([2]; medium containing no EGF, no SB202190, 500 nM and 5000 nM, 14 days, FIG. 6) | stem cell properties (Lgr5-tdTomato reporter), 5000 nM versus 500 nM ([2]; medium containing no EGF, no SB202190, 14 days, FIG. 6) | action on ALK5 and off-target kinases/receptors [3] | inhibition of p38 MAPK signaling pathway [4] | organoid formation efficiency compared with A83-01 [5] | proliferation of cells ([1]; 50 nM in the culture medium, FIG. 3)
Cc1cccc(-c2nn(C(=S)Nc3ccccc3)cc2-c2ccnc3ccccc23)n1 [Peptide A83-01] | proliferation of cells is not observed after 35 days | the cell proliferative properties and the colony forming properties were concentration-dependently inhibited | higher stem cell properties | higher stem cell properties | strongly act | inhibits p38 MAPK signaling pathway | – | –
#2392 peptide: cyclic peptide, chemical formula in Formula (3-1), amino acid sequence (SEQ ID NO: 4) in Formula (3-2) (F[1Nal]VVNVTDD[Gly(NCH2CH2Ph)]V[1Nal]THVCG; bridge (positions not given here); not fully specified (bridges)) | – | – | – | – | – | – | organoids can be formed with an efficiency equal to or higher than that in a case where A83-01 was added | –
#7401 peptide: cyclic peptide, chemical formula in Formula (2-1), amino acid sequence (SEQ ID NO: 3) in Formula (2-2) (F[1Nal]VVNV[4Pal]DD[Gly(NCH2CH2Ph)]V[1Nal]THK(X1)CG; bridge (positions not given here); not fully specified (bridges)) | – | – | – | – | – | – | organoids can be formed with an efficiency equal to or higher than that in a case where A83-01 was added | cells can sufficiently proliferate
